Assay [1] has as its target T1, Aβ (Homo sapiens, UniProt P05067).
T1 construct: from tissue; host or cells: Alzheimer disease (AD) brain tissue homogenate
Also noted: method as in PMID 40256311. The following applies: in vitro binding properties of lead M503-1619; cited from earlier work.

For assay [2], the target named is T2, recombinant aSyn fibrils (Homo sapiens, UniProt P37840). Also noted: method as in PMID 40256311. The following applies: in vitro binding properties of lead M503-1619; cited from earlier work.
Assay [3] concerns the target T2, recombinant aSyn fibrils. Briefly: In vitro radioligand binding assay with [^3H]BF2846 in recombinant aSyn fibrils.
Method: The affinity of the target compounds for aSyn was performed in recombinant human fibrils using an in vitro radioligand binding assay with [^3H]BF2846 as the radioligand, which binds to site 9 in recombinant aSyn fibrils [16].
In vitro radioligand biding assays were performed by using the pervious published method [12, 15] to measure the affinity of the target compounds for aSyn and Aβ. In brief, the radioligand for the aSyn assay was [^3H]BF2846 and the assay was conducted using recombinant fibrils. Three concentrations of test compounds (10 nM, 100 nM and 1 µM) were incubated with ~4 nM [^3H]BF2846 and 50 nM aSyn fibrils in a working buffer (50 mM Tris-HCl, 0.01% bovine serum albumin) at 37 °C for 1.5 h. The mixture (150 µL) was separated by filtration through a Unifilter-96 system (PerkinElmer, Shelton, CT, USA) and washed with an ice-cold buffer (10 mM Tris-HCl (pH 7.4), 15 mM NaCl and 20% EtOH) before scintillation counting. Total binding was defined in the absence of competitor, and non-specific binding was determined using 100 nM unlabeled BF2846. […] Data from three independent experiments were analyzed by non-linear regression in GraphPad Prism v.9.3.1 (GraphPad Inc., San Diego, CA, USA) to calculate Ki values using the equation, Ki = EC50/(1 + [radioligand]/Kd).

Structures are written as SMILES. Like-named read-outs stand apart in the source and are kept apart here.

Here are results for 2 molecules from paper PMC13416357 (Molecules, 2026).

T1 sequence (P05067 672-713 limits assumed): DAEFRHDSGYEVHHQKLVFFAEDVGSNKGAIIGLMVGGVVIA

A word on the Ki: it is the dissociation constant of the complex between target and ligand, obtained from inhibition or displacement. As to `COc1ccc(NC(=O)c2cnc(N3CCN(c4ccccn4)CC3)nc2N)cc1` [Compound M503-1619], the inhibitory constant (Ki) in assay [1] was 390 nM; in assay [2], 6.5 nM. On to `COc1ccc(NC(=O)c2cnc(N3CCN(c4ncccn4)CC3)nc2N)cc1` [GT-9-40], for which, in assay [3], the inhibitory constant (Ki) amounted to 41.9 ± 13.8 nM.
